Assays:
GST-hMDM2 (aa1-188) = target: T1, GST-hMDM2 (aa1-188) (Homo sapiens, UniProt Q00987); test: Homogeneous time resolved fluorometry (HTRF assay), hMDM2/p53 interaction; format: binding; conditions: HTRF analysis; GST-hMDM2 (aa1-188) / biotinylated-p53 (aa1-83)
T1 construct: The amino acid residues 1-188 of human MDM2 were expressed as GST-hMDM2 fusion protein; made in house; host or cells: E. coli
Method: Residues 1-83 of human p53 were expressed as avitag <TM>-trxa-6×his fusion protein (biotinlabelled p53) in E. coli. Each protein was separated from cell homogenate by affinity chromatography.
Specifically, 10 μL GST-hMDM2 was incubated with 10 uL diluted compound in 10% DMSO for 20 minutes at room temperature. 20 μL biotinlabelled-p53 was added to the mixture of GST-hMDM2 and then incubated at room temperature for 60 min. A 10 μL detection buffer consisting of SA-XLent, anti-GST cavernous compound antibody and KF was added to the reaction solution consisting of GST-hMDM2, biotinlabelled-p53 and the compound and was placed at room temperature to achieve equilibrium and maintained for more than 4 h. The final concentration of DMSO in the reaction solution was 2%. Time resolved fluorescence were measured on a microplate multi label reader. The inhibition percentage was calculated relative to nutlin-3.

[1] = test system: p21 transcripts in SJSA-1 cells; test: p21 assay (QRT-PCR of p21 transcripts in SJSA-1 cells); format: cell-based, human; conditions: cell assay (SJSA-1 cell), p21 induction, 7 hours incubation
Source text: Inhibition of the interaction between hMDM2 and p53 results in the activation of the p53 pathway via the stabilization and accumulation of p53. P53 activates the transcription of many genes, one of which is p21<WAFT/CIP1>. To evaluate the potency of hMDM2 inhibitors, quantitative reverse transcription polymerase chain reaction (QRT PCR) was used to measure the level of p21 transcripts of compound related cells relative to that of control cells treated with dimethyl sulfoxide (DMSO).
In the first day, SJSA-1 cells were inoculated into 100 μL growth medium (RPMI1640; 10 mM HEPES; 1 mM sodium pyruvate; 1× penicillin streptomycin glutamine (PSQ) and 10% FBS, all reagents were obtained from Invitrogen) at a density of 3×10^4 cells in 96-well cell culture plate. The cells were cultured overnight at 37° C. and 5% CO2 atmosphere.
In the second day, hMDM2 inhibitor was gradient diluted in DMSO(Sigma-Aldrich; St. Louis, Mo.). 5 μl of each compound dilution were added into 245 μl filtered assay medium (RPMI1640, 10% FBS, 10 mM HEPES, 1 mM sodium pyruvate and 1×PSQ). Or the assay was conducted with the presence of 10% human serum or 10% mouse serum, or without serum. Growth medium was removed from inoculated SJSA-1 cell culture plate and replaced by 100 μL assay medium for each well. Then 100 μL culture medium containing diluted inhibitor was added into each well to a final volume 200 μL. The final concentration of the compound was in the range of 0.049 μm-50 μm by dose titration with DMSO as control. The cells were incubated at 37° C. and 5% CO2 for 7 hours with the presence of inhibitor. When incubation was completed, growth medium was removed from cells and the plate was stored at −80° C.
In the third day, giagen BioRobot Universal workstation was used to purify total RNA from SJSA-1 cells treated with inhibitor and DMSO respectively. The purification procedure herein was according to RNeasy96BioRobot8000 test kit provided by Qiagen, Valencia, Calif.
To measure the level of existing p21 transcripts, QRT-PCR was introduced. The levels of p21, housekeeping genes and glyceraldehyde 3-phosphate dehydrogenase (GAPDH) were determined by the total RNA from each inhibitor- or DMSO-treated well by duplicated test. The QRT-PCR reaction was performed on the Applied Biosystems prism 7900ht instrument using the relative quantitative (ΔΔ Ct) method according to the following cycle conditions: 48° C. for 30 minutes, then 95° C. for 10 minutes, and then was 40 cycles consisting of 95° C. for 15 seconds and 60° C. for 1 minute. The data were analyzed by using Applied Biosystems SDS2.2 software, with GAPDH as inner control and DMSO treated samples as calibrators. SDS2.2 software calculated the relative quantification (RQ) or increased fold of p21 level relative to DMSO control for each treated sample. The maximum (100%) p21 induction fold was defined by the maximum value of the fitting curve of the reference compound. The p21 induction fold of each inhibitor dose tested was converted to a value representing the percentage of the maximum value. XLFit software (ID business solutions, Alameda, Calif.) was used to make dose-response curve to calculate the IC50 transit value of each inhibitor tested.

T1 sequence (Q00987 1-188): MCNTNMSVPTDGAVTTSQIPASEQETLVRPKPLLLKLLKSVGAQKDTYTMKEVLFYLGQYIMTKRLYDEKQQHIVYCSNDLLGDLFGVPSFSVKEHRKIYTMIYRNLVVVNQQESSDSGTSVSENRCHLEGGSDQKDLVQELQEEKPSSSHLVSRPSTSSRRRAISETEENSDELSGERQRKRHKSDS

| IC50 (GST-hMDM2 (aa1-188)) | IC50 ([1]; Homo sapiens, SJSA-1, 7 h) | IC50 [1] | Compound |
| --- | --- | --- | --- |
| > 100 nM | 1000 to 10000 nM | – | CC(C)[C@@H](CS(=N)(=O)C(C)C)N1C(=O)[C@@](C)(CC(=O)Nc2cccc(C(F)(F)F)c2)C[C@H](c2cccc(Cl)c2)[C@H]1c1ccc(Cl)cc1 (stereo partly drawn) [Compound 016] |
| < 10 nM | < 1000 nM | – | CC(C)[C@@H](CS(=O)(=NC(N)=O)C(C)C)N1C(=O)[C@@](C)(CC(=O)O)C[C@H](c2cccc(Cl)c2)[C@H]1c1ccc(Cl)cc1 (stereo partly drawn) [Compound 034] |
| 10 to 100 nM | 1000 to 10000 nM | – | CC(C)[C@@H](CS(=O)(=O)C(C)C)N1C(=O)[C@@](C)(CC(=O)NS(=N)(=O)C2CC2)C[C@H](c2cccc(Cl)c2)[C@H]1c1ccc(Cl)cc1 (stereo partly drawn) [Compound 025] |
| < 10 nM | < 1000 nM | – | CC(C)[C@@H](CS(=N)(=O)C(C)C)N1C(=O)[C@@](C)(CC(=O)O)C[C@H](c2cccc(Cl)c2)[C@H]1c1ccc(Cl)cc1 (stereo partly drawn) [Compound 001] |
| 10 to 100 nM | 1000 to 10000 nM | – | CC(C)[C@@H](CS(=N)(=O)C(C)C)N1C(=O)[C@@](C)(CC(=O)NS(=O)(=O)c2ccc(F)cc2)C[C@H](c2cccc(Cl)c2)[C@H]1c1ccc(Cl)cc1 (stereo partly drawn) [Compound 022] |
| 10 to 100 nM | < 1000 nM | – | C=CC(=O)N=[S@@](=O)(C[C@H](C(C)C)N1C(=O)[C@@](C)(CC(=O)O)C[C@H](c2cccc(Cl)c2)[C@H]1c1ccc(Cl)cc1)C(C)C [Compound 041] |
| 10 to 100 nM | < 1000 nM | – | CC(C)[C@@H](CS(=O)(=O)C(C)C)N1C(=O)[C@@](C)(CC(=O)NS(=N)(=O)C2(C)CC2)C[C@H](c2cccc(Cl)c2)[C@H]1c1ccc(Cl)cc1 (stereo partly drawn) [Compound 028A] |
| 10 to 100 nM | 1000 to 10000 nM | – | CC(C)[C@@H](CS(=N)(=O)C(C)C)N1C(=O)[C@@](C)(CC(=O)NC23CCC(C(=O)O)(CC2)CC3)C[C@H](c2cccc(Cl)c2)[C@H]1c1ccc(Cl)cc1 (stereo partly drawn) [Compound 010] |
| 10 to 100 nM | 1000 to 10000 nM | – | CC(C)[C@@H](CS(=N)(=O)C(C)C)N1C(=O)[C@@](C)(CC(=O)Nc2ccccc2)C[C@H](c2cccc(Cl)c2)[C@H]1c1ccc(Cl)cc1 (stereo partly drawn) [Compound 015] |
| < 10 nM | < 1000 nM | – | COc1cc(NC(=O)C[C@@]2(C)C[C@H](c3cccc(Cl)c3)[C@@H](c3ccc(Cl)cc3)N([C@H](CS(=N)(=O)C(C)C)C(C)C)C2=O)ccc1C(=O)O (stereo partly drawn) [Compound 008] |
| 10 to 100 nM | – | 1000 to 10000 nM | CC(C)[C@@H](CS(=O)(=O)C(C)C)N1C(=O)[C@@](C)(CC(=O)NS(=N)(=O)C2(C)CC2)C[C@H](c2cccc(Cl)c2)[C@H]1c1ccc(Cl)cc1 (stereo partly drawn) [Compound 028B] |
| 10 to 100 nM | 1000 to 10000 nM | – | CC(C)[C@@H](CS(=N)(=O)C(C)C)N1C(=O)[C@@](C)(CC(=O)NS(=O)(=O)c2ccc(C#N)cc2)C[C@H](c2cccc(Cl)c2)[C@H]1c1ccc(Cl)cc1 (stereo partly drawn) [Compound 024] |

— patent US11299460B2, “MDM2 inhibitor, preparation method therefor, pharmaceutical composition thereof and use thereof” (SHANGHAI LONGWOOD BIOPHARMACEUTICALS CO., LTD., priority 2018, dated 2022)
